The source made the active and inactive calls. The rule behind the calls is not given here.
The compounds below were run against Muscarinic acetylcholine receptor M4 (Mus musculus) (UniProt P32211) (assay: M4 muscarinic receptor activation by allosteric ligands – cell-based, confirmation (AID 643)). Details: HEK293 cells expressing M4, thallium flux fluorescence, 2 min; hits give high values.
Chain of Muscarinic acetylcholine receptor M4 (Mus musculus) (P32211 whole entry, looked up): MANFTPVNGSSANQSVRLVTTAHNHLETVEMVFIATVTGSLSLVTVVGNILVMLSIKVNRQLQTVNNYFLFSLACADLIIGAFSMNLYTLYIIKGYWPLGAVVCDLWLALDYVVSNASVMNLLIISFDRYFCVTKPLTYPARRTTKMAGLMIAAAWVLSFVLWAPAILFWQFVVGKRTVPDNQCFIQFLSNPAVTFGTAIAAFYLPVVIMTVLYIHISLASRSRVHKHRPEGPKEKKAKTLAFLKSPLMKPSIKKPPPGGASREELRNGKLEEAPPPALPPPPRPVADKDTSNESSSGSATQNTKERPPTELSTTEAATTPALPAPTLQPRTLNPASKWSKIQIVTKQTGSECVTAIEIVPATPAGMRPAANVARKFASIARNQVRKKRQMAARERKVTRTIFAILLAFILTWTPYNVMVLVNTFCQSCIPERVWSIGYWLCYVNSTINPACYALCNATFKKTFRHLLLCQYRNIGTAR
In the case of `Cc1ccc(S(=O)(=O)/C(C#N)=C/c2c(N3CCN(C)CC3)nc3c(C)cccn3c2=O)cc1`, the response slope is reported as 0.00236 (inactive).
With `N#Cc1c(NC(=O)c2ccc(Br)o2)n(-c2ccccc2)c2nc3ccccc3nc12` the response slope was 0.00921.
Compound `COc1ccc(-c2noc(CSc3nc4ccccc4c(=O)n3-c3ccccc3)n2)cc1OC` has a response slope of 0.00773.
`O=C(Nc1nc(-c2ccc(S(=O)(=O)N3CCCC3)cc2)cs1)C1COc2ccccc2O1` (stereo not given) was tested, and the response slope was 0.00604 (inactive).
With `O=C(Nc1nc(=O)c2ccccc2s1)c1ccccc1` the response slope was 0.00981.
In the case of `Cc1ccc(Cl)cc1N1CCN(C(=O)CN2C(=O)c3cccc4cccc2c34)CC1`, the response slope is reported as 0.00517 (inactive).
For `Cc1ccc(CNC(=O)c2cc3c(=O)n4ccccc4nc3n(CC3CCCO3)c2=N)cc1` (stereo not given), the response slope was 0.00307 (inactive).
`COc1cc(OC)cc(-c2nnc(Nc3nc4c(F)cccc4s3)o2)c1` showed a response slope of 0.0119.
In the case of `CN(C)c1ccc(/C=C/C(O)=C2/C(=O)N(C)C3(C)CC2c2ccccc2O3)cc1` (stereo not given), the response slope is reported as 0.00464 (inactive).
Work on `O=c1oc2c3c4c(cc2c(C(F)(F)F)c1CCN1CCOCC1)CCCN4CCC3` yielded a response slope of 0.0204.
In the case of `COc1ccc(CCn2c(=N)c(C(=O)NCc3ccco3)cc3c(=O)n4ccccc4nc32)cc1`, the response slope is reported as 0.000825 (inactive).
`O=C(Nc1nc(-c2ccc(S(=O)(=O)N3CCCCCC3)cc2)cs1)c1cccs1` gave a response slope of 0.0142.
Work on `C[C@H]1OC[C@@H](C[N+](C)(C)C)O1` yielded a response slope of 0.0167.
`Cc1c2ccncc2c(C)c2c1[nH]c1ccccc12` was tested, and the response slope was 0.0125.
For `CC(=O)c1c(C)c2c(n1CCN(C)C)CCCC2`, the response slope was 0.00747.
`COc1cc(/C=C/C(=O)CC(=O)/C=C/c2ccc(O)c(OC)c2)ccc1O` was tested, and the response slope was 0.00973.
In the case of `CCn1c(SC(C)C(=O)O)nc2sc3c(c2c1=O)CCC3` (stereo not given), the response slope is reported as 0.0132.
Work on `O=c1c2ccccc2nc(-c2cccc(Cl)c2)n1O` yielded a response slope of 0.00746.
With `Cc1ccccc1-n1nc(C)c2cc(C(=O)NCc3cccnc3)sc21` the response slope was 0.00964.
For `CNS(=O)(=O)c1cccc(C(=O)OCC(=O)c2cc(C)n(-c3ccc4c(c3)OCO4)c2C)c1`, the response slope was 0.00508 (inactive).
Compound `CCOC(=O)c1cnn2c1[nH]c(=O)c1ccccc12` has a response slope of 0.00865.
For `CC(=O)OC(C)C[N+](C)(C)C` (stereo not given), the response slope was 0.00597 (inactive).
For `S=c1nc(C2CC2)[nH]c2ccccc12`, the response slope was -0.00904 (inactive).
For `CCOc1ccc(-n2c(O)c(C=Nc3ccc(N(CC)CC)cc3)c(=O)[nH]c2=O)cc1`, the response slope was -0.00673 (inactive).
With `C/C(CC1(O)C(=O)N(Cc2ccccc2)c2ccccc21)=N\O` (stereo not given) the response slope was 0.00834.
Work on `Cc1ccc(-c2nn(-c3ccccc3)cc2/C=C(\C#N)c2cccc(C#N)c2)o1` yielded a response slope of 0.0107.
For `O=C(O)c1cc(O)c2c(c1)C(=O)c1cccc(O)c1C2=O`, the response slope was 0.00514 (inactive).
In the case of `Cc1c(C#N)sc2nc(-c3ccccc3)nc(N3CCCC3)c12`, the response slope is reported as 0.0119.
With `CCOc1ccccc1OCCCCN1CCCC1` the response slope was 0.0043 (inactive).
`CCc1cccc(NC(=O)Cn2cc3c(n2)CCCC3)c1` was tested, and the response slope was 0.00695 (inactive).
`CCN(CC)C(=O)c1sc2nc(-c3cccs3)cc(-c3cccs3)c2c1N` was tested, and the response slope was -0.000749 (inactive).
In the case of `Fc1cccc2sc(Nc3nnc(-c4ccco4)o3)nc12`, the response slope is reported as 0.0206.
In the case of `Cc1cccc2sc(NC(=O)Cn3cccc3)nc12`, the response slope is reported as 0.0102.
For `CCN(CC)c1ccc2cc(-c3nc4ccccc4[nH]3)c(=O)oc2c1`, the response slope was 0.0191.
In the case of `CCOC(=O)c1cc(-c2nnc(-c3ccc(Oc4ccccc4)cc3)o2)c(C)nc1C`, the response slope is reported as 0.0113.
For `Clc1ccccc1OCCCCn1ccnc1`, the response slope was 0.00392 (inactive).
With `CCCCCCc1cc2cc(-c3nnc(-c4ccccc4O)o3)c(=O)oc2cc1O` the response slope was 0.0548.
In the case of `Cc1nn(-c2ccc(Cl)cc2)c2sc(C(=O)N3CCN(c4ccccn4)CC3)cc12`, the response slope is reported as 0.00468 (inactive).
With `CCCCNC(=O)Nc1ccnn1C1CCCCC1` the response slope was 0.00873.
Work on `Cc1ccc(SCc2c(C#N)c3ccccc3n2C)cc1` yielded a response slope of 0.00835.
`CN(C)C(CNC(=O)Nc1cccc(Cl)c1)c1cccnc1` (stereo not given) was tested, and the response slope was 0.00144 (inactive).
In the case of `CCOC(=O)CC(=O)CSc1nc(-c2cccnc2)ccc1C#N`, the response slope is reported as 0.00405 (inactive).
Compound `CCOC(=O)C1=C[C@]2(CC)CCCN3CCc4c(n1c1ccccc41)[C@@H]32` has a response slope of 0.00841.
In the case of `CCCCN(CCCC)c1nc2ccccc2nc1C(C#N)C(=O)NCCCOC` (stereo not given), the response slope is reported as 0.00562 (inactive).
In the case of `Cc1csc(NC(=O)c2sc3nc(-c4cccs4)ccc3c2N)n1`, the response slope is reported as 0.00327 (inactive).
